Counter-ions that a name gives are not always drawn.
System: T1, 1N4R p-tau
T1 construct: made in house; host or cells: E. coli (PIMAX system)
Experiment: p-tau aggregation modulator screen of 1280-compound library (ThS fluorescence net change over 16 h)
Format: biochemical
Conditions: not given

Row | Molecule | ThS net change
1 | CCCCN(CCCC)CCC(O)c1cc2c(Cl)cc(Cl)cc2c2cc(C(F)(F)F)ccc12 (centres unmarked) [Halofantrine hydrochloride] | 555
2 | CC(C)C[C@H]1C(=O)N2CCC[C@H]2[C@]2(O)O[C@](NC(=O)[C@@H]3C=C4c5cccc6[nH]c(Br)c(c56)C[C@H]4N(C)C3)(C(C)C)C(=O)N12.CS(=O)(=O)O [Bromocryptine mesylate] | 296
3 | NCC[C@H](O)C(=O)N[C@@H]1C[C@H](N)[C@@H](O[C@H]2O[C@H](CN)[C@@H](O)[C@H](O)[C@H]2O)[C@H](O)[C@H]1O[C@H]1O[C@H](CO)[C@@H](O)[C@H](N)[C@H]1O.O.O [Amikacin hydrate] | 418
4 | C[C@]12CC[C@H]3[C@@H](CCC4=CC(=O)CC[C@@H]43)[C@@H]1CC[C@@H]2O [Nandrolone] | 479
5 | CN1CC[C@@]2(C)c3cc(O)ccc3N(C)[C@H]12.O=C(O)/C=C/C(=O)O [(-)-Eseroline fumarate salt] | 309

Same assay, conditions: 1280-compound library screen; ThS fluorescence net change over 16 h

Row | Molecule | ThS net change
6 | Nc1nc(Cl)nc2c1ncn2[C@H]1C[C@H](O)[C@@H](CO)O1 [Cladribine] | 399
7 | C=CCN1CCCC1CNC(=O)c1cc2nn[nH]c2cc1OC.Cl (centres unmarked) [Alizapride HCl] | 383
8 | CC(=O)OCC(=O)[C@@]12OC(C)(C)O[C@@H]1C[C@H]1[C@@H]3C[C@H](F)C4=CC(=O)C=C[C@]4(C)[C@@]3(F)[C@@H](O)C[C@@]12C [Fluocinonide] | 387
9 | CCCOc1ccc(C(=O)OCCN(CC)CC)cc1N [Proparacaine hydrochloride] | 392
10 | C=C1C[C@H]2[C@@H]3C=C(C)C4=CC(=O)CC[C@]4(C)[C@H]3CC[C@]2(C)[C@@]1(OC(C)=O)C(C)=O [Melengestrol acetate] | 404
11 | CC(O)(CS(=O)(=O)c1ccc(F)cc1)C(=O)Nc1ccc(C#N)c(C(F)(F)F)c1 (centres unmarked) [Bicalutamide] | 388
12 | CCN1C(=O)NC(c2ccccc2)C1=O (centres unmarked) [Ethotoin] | 394
13 | CCCCC1(COC(=O)CCC(=O)O)C(=O)N(c2ccccc2)N(c2ccccc2)C1=O [Suxibuzone] | 392
14 | O=C(CCCN1CC=C(n2c(=O)[nH]c3ccccc32)CC1)c1ccc(F)cc1 [Droperidol] | 412
15 | Nc1nnc(-c2cccc(Cl)c2Cl)c(N)n1 [Lamotrigine] | 389
16 | C[C@@](Cc1ccc(O)c(O)c1)(NN)C(=O)O [Carbidopa] | 395
17 | O=C([O-])CCNC(=O)c1ccc(/N=N/c2ccc(O)c(C(=O)[O-])c2)cc1.[Na+].[Na+] [Balsalazide Sodium] | 399
18 | COCCc1ccc(OCC(O)CNC(C)C)cc1.COCCc1ccc(OCC(O)CNC(C)C)cc1.O=C(O)C(O)C(O)C(=O)O (racemic) [Metoprolol-(+,-) (+)-tartrate salt] | 390
19 | Cc1c(N)c(=O)n(-c2ccccc2)n1C [Ampyrone] | 388
20 | NS(=O)(=O)c1cc2c(cc1Cl)N=C(CSCc1ccccc1)NS2(=O)=O [Benzthiazide] | 399
21 | CN(c1nccc(=O)[nH]1)C1CCN(c2nc3ccccc3n2Cc2ccc(F)cc2)CC1 [Mizolastine] | 390

Same assay, conditions: 1280-compound library screen; […]

Row | Molecule | ThS net change
22 | OC(c1ccccc1)(c1ccccc1)C1CCNCC1 [Azacyclonol] | 400
23 | O=P(O)(O)C(O)(Cn1ccnc1)P(=O)(O)O [Zoledronic acid hydrate] | 398

Same assay, conditions: library screen, ThS fluorescence net change over 16 h with p-tau

Row | Molecule | ThS net change
24 | CN(C)CC/C=C1\c2ccccc2CSc2ccccc21 [Dosulepin hydrochloride] | 311
25 | N[C@@H](Cc1cc(I)c(Oc2ccc(O)c(I)c2)c(I)c1)C(=O)O [Liothyronine] | 298
26 | O=C1Cc2cc(CCN3CCN(c4nsc5ccccc45)CC3)c(Cl)cc2N1 [Ziprasidone Hydrochloride] | 293
27 | Cc1ccccc1C(OCCN(C)C)c1ccccc1 (centres unmarked) [Orphenadrine hydrochloride] | 295
28 | CCCCOc1cc(C(=O)OCCN(CC)CC)ccc1N [Benoxinate hydrochloride] | 312

Same assay, conditions: p-tau aggregation modulator screen of 1280-compound library; ThS fluorescence net change

Row | Molecule | ThS net change
29 | CC(=O)OCC(=O)[C@@]1(O)CC[C@H]2[C@@H]3CCC4=CC(=O)CC[C@]4(C)[C@H]3[C@@H](O)C[C@@]21C [Cortisol acetate] | 369
30 | CC(N)C12CC3CC(CC(C3)C1)C2 (centres unmarked) [Rimantadine Hydrochloride] | 365
31 | CN(C(=O)C(Cl)Cl)c1ccc(OC(=O)c2ccco2)cc1 [Diloxanide furoate] | 371
32 | c1ccc2c(c1)CCCC2C1=NCCN1 (centres unmarked) [Tetrahydrozoline hydrochloride] | 362
33 | Cc1cccc(Nc2ccccc2C(=O)O)c1C [Mefenamic acid] | 353
34 | CN(C)CCOC(c1ccccc1)c1ccccc1.Cn1c(=O)c2[nH]c(Cl)nc2n(C)c1=O [Dimenhydrinate] | 345
35 | CCOC(=O)C1=C(C)NC(C)=C(C(=O)OC)C1c1cccc([N+](=O)[O-])c1 (centres unmarked) [Nitrendipine] | 344
36 | Cc1cc(C(C)(C)CC(C)(C)C)ccc1OCCOCC[N+](C)(C)Cc1ccccc1.[Cl-] [Methyl benzethonium chloride] | 348
37 | COc1ccccc1N1CCN(CCCCNC(=O)c2ccc3ccccc3c2)CC1.Cl.Cl [DO 897/99] | 374
38 | Nc1ccc(S(=O)(=O)Nc2ccnn2-c2ccccc2)cc1 [Sulfaphenazole] | 334
39 | COC(=O)[C@H]1[C@H]2C[C@@H]3c4[nH]c5cc(OC)ccc5c4CCN3C[C@H]2C[C@@H](OC(=O)c2cc(OC)c(OC)c(OC)c2)[C@@H]1OC [Reserpine] | 355
40 | C#C[C@]1(O)CC[C@H]2[C@@H]3CCC4=CC(=O)CC[C@@H]4[C@H]3CC[C@@]21C [Norethindrone] | 356
41 | Cc1ncc(CO)c(CO)c1O [Pyridoxine hydrochloride] | 354
42 | CCN(CC)CCNC(=O)c1cc(Br)c(N)cc1OC [Bromopride] | 373
43 | CO[C@H]1C[C@H](O[C@H]2[C@H](C)[C@@H](O[C@@H]3O[C@H](C)C[C@H](N(C)C)[C@H]3OC(C)=O)[C@@H](C)C[C@@]3(CO3)C(=O)[C@H](C)[C@@H](OC(C)=O)[C@@H](C)[C@@H](C)OC(=O)[C@@H]2C)O[C@@H](C)[C@@H]1OC(C)=O [Troleandomycin] | 357
44 | COC(=O)Nc1nc2ccc(C(=O)c3ccccc3)cc2[nH]1 [Mebendazole] | 340
45 | Cc1c(-c2ccccc2)oc2c(C(=O)OCCN3CCCCC3)cccc2c1=O [Flavoxate hydrochloride] | 359
46 | CCN1CCN(C(=O)N[C@@H](C(=O)N[C@@H]2C(=O)N3C(C(=O)O)=C(CSc4nnnn4C)CS[C@H]23)c2ccc(O)cc2)C(=O)C1=O [Cefoperazone dihydrate] | 363

Same assay, conditions: p-tau aggregation modulator screen of 1280-compound library; […]

Row | Molecule | ThS net change
47 | CC(=O)N(CC(O)CN(C(C)=O)c1c(I)c(C(=O)NCC(O)CO)c(I)c(C(=O)NCC(O)CO)c1I)c1c(I)c(C(=O)NCC(O)CO)c(I)c(C(=O)NCC(O)CO)c1I (centres unmarked) [Iodixanol] | 338
48 | Deoxycorticosterone | 346
49 | COc1cc2nc(N3CCN(C(=O)C4CCCO4)CC3)nc(N)c2cc1OC (centres unmarked) [Terazosin hydrochloride] | 366
50 | COc1c(O[C@@H]2O[C@H](CO)[C@@H](O)[C@H](O)[C@H]2O)cc2c(c1OC)-c1ccc(SC)c(=O)cc1[C@@H](NC(C)=O)CC2 [Thiocolchicoside] | 370

Same assay, conditions: p-tau aggregation modulator screen of the compound library, ThS fluorescence net change

Row | Molecule | ThS net change
51 | CC[C@H]1OC(=O)[C@H](C)[C@@H](O[C@H]2C[C@@](C)(OC)[C@@H](O)[C@H](C)O2)[C@H](C)[C@@H](O[C@@H]2O[C@H](C)C[C@H](N(C)C)[C@H]2O)[C@](C)(O)C[C@@H](C)CN(C)[C@H](C)[C@@H](O)[C@]1(C)O [Azithromycin] | 467
52 | CC[N+](C)(C)Cc1ccccc1Br [Bretylium tosylate] | 431
53 | COc1cc(-c2ccc(=O)[nH]n2)ccc1OC(F)F [Zardaverine] | 454
54 | CC(=O)N[C@@H](CC(=O)N[C@@H](CCC(=O)O)C(=O)O)C(=O)O [Spaglumic acid] | 425
55 | CCc1cccc2c3c([nH]c12)C(CC)(CC(=O)O)OCC3 (centres unmarked) [Etodolac] | 443
56 | CN(C/C=C/C#CC(C)(C)C)Cc1cccc2ccccc12 [Terbinafine] | 506
57 | CC(C)(C)C(=O)OCOC(=O)[C@@H]1N2C(=O)[C@@H](NC(=O)[C@H](N)c3ccccc3)[C@H]2SC1(C)C [Pivampicillin] | 481
58 | CC1(C)O[C@@H]2C[C@H]3[C@@H]4CCC5=CC(=O)C=C[C@]5(C)[C@H]4[C@@H](O)C[C@]3(C)[C@]2(C(=O)CO)O1 [Desonide] | 440
59 | CCOc1ccc2nc(S(N)(=O)=O)sc2c1 [Ethoxzolamide] | 428
60 | OCC(O)CN1CCN(c2ccccc2)CC1 (racemic) [Dropropizine (R,S)] | 418
61 | C=C1c2cccc(O)c2C(=O)C2=C(O)[C@]3(O)C(=O)C(C(N)=O)=C(O)[C@@H](N(C)C)[C@@H]3[C@@H](O)[C@H]12 [Methacycline hydrochloride] | 537
62 | C=CCOC(Cn1ccnc1)c1ccc(Cl)cc1Cl (centres unmarked) [Enilconazole] | 461
63 | CN1[C@@H]2CC[C@H]1CC(OC1c3ccccc3CCc3ccccc31)C2.O=C(O)CC(O)(CC(=O)O)C(=O)O (some centres unmarked) [Deptropine citrate] | 455
64 | COC(=O)[C@H](c1ccccc1Cl)N1CCc2sccc2C1 [Clopidogrel] | 499
65 | N#CC(c1ccc(Cl)cc1)c1c(Cl)cc(-n2ncc(=O)[nH]c2=O)cc1Cl (centres unmarked) [Diclazuril] | 507
66 | O=C(CCCN1CCC(n2c(O)nc3ccccc32)CC1)c1ccc(F)cc1 [Benperidol] | 416
67 | C[C@@H](O[C@H]1OCCN(Cc2n[nH]c(=O)[nH]2)[C@H]1c1ccc(F)cc1)c1cc(C(F)(F)F)cc(C(F)(F)F)c1 [Aprepitant] | 451
68 | CN(CCOc1ccc(CC2SC(=O)NC2=O)cc1)c1ccccn1.Cl (centres unmarked) [Rosiglitazone Hydrochloride] | 476
